In ChEMBL document CHEMBL1131710, “N-substituted-3-arylpyrrolidines: potent and selective ligands at serotonin 1A receptor” (Bioorg Med Chem Lett, 1999):

How the values were obtained:
Format in all cases: tissue-based
[1] = target: T1, Adrenergic receptor alpha-2 (Rattus norvegicus, UniProt P22086+P19328+P22909); test: In vitro binding affinity against Alpha-2 adrenergic receptor of rat cerebral cortex using [3H]RX-821002
T1 sequence (P22086 whole entry): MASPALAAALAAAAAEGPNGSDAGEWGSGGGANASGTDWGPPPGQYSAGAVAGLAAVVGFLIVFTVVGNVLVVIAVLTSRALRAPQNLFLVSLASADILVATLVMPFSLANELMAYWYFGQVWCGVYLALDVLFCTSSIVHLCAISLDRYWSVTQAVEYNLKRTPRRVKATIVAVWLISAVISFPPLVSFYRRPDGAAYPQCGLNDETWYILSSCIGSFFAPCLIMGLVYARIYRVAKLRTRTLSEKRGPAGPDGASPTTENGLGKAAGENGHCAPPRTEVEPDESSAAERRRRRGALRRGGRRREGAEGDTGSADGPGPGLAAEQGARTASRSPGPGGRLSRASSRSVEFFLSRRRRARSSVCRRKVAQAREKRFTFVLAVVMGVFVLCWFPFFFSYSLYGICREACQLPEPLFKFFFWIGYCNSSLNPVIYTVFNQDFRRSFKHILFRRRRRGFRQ
T1 sequence (P19328 whole entry): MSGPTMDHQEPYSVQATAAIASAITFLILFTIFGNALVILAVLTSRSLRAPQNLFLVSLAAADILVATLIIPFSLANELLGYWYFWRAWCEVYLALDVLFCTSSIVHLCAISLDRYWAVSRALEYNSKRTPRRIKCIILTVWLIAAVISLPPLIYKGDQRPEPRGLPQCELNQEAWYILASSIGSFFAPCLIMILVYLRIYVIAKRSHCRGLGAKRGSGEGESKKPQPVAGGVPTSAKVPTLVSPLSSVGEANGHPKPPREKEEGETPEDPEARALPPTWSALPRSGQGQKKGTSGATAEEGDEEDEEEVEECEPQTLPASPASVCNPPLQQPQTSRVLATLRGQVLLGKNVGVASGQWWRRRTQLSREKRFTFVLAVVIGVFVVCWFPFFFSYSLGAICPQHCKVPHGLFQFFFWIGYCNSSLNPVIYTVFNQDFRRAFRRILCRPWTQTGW
T1 sequence (P22909 whole entry): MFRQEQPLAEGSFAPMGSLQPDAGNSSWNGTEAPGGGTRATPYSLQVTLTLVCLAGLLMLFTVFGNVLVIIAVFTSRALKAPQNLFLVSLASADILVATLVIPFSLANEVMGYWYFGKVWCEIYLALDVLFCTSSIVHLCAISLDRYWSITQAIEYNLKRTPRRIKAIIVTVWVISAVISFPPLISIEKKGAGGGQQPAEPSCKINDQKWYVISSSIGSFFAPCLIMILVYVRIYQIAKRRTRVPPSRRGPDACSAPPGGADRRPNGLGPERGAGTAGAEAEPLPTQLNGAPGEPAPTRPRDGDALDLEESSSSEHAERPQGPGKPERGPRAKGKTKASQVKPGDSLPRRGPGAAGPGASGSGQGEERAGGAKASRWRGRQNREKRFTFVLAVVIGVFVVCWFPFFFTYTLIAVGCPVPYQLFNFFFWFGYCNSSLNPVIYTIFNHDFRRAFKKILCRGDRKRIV

D(1A) dopamine receptor = D(1A) dopamine receptor (Rattus norvegicus, UniProt P18901); test: In vitro binding affinity against Dopamine receptor D1 of rat striatum using [3H]SCH-23390
D(2) dopamine receptor = D(2) dopamine receptor (Rattus norvegicus, UniProt P61169); test: In vitro binding affinity against Dopamine receptor D2 of rat striatum using [3H]raclopride
[2] = target: 5-hydroxytryptamine receptor 2A (Rattus norvegicus, UniProt P14842); test: In vitro binding affinity against 5-HT2A receptor of rat cerebral cortex using [3H]ketanserin
[3] = target: T2, 5-hydroxytryptamine receptor 1A (Rattus norvegicus, UniProt P19327); test: In vitro binding affinity against 5-HT1A receptor of rat hippocampus using [3H]8-OH-DPAT
T2 sequence (P19327 whole entry): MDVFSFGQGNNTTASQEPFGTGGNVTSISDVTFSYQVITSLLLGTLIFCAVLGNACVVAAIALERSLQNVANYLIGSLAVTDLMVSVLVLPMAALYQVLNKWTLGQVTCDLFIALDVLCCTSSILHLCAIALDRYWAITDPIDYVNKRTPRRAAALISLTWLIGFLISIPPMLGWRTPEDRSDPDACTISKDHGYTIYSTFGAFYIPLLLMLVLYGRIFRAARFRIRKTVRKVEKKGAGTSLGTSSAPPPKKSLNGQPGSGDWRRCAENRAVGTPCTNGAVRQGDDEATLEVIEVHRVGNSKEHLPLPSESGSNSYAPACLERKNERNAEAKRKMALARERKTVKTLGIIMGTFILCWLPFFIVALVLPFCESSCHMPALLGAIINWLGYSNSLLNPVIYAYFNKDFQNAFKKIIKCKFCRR

Sequence of 5-hydroxytryptamine receptor 2A (P14842 whole entry): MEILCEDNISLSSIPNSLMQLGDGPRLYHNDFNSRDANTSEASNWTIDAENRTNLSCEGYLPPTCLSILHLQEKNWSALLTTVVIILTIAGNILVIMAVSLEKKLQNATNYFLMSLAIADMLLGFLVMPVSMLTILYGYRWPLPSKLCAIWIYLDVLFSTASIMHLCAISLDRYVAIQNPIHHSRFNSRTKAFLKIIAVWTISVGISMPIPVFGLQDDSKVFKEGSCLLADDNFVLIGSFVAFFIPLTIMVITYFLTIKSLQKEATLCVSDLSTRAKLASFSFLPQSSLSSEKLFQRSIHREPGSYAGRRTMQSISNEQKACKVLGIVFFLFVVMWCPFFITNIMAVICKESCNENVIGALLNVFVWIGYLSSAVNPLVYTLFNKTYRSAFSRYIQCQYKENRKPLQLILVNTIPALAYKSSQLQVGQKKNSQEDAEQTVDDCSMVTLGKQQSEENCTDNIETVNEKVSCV
Sequence of D(2) dopamine receptor (P61169 whole entry): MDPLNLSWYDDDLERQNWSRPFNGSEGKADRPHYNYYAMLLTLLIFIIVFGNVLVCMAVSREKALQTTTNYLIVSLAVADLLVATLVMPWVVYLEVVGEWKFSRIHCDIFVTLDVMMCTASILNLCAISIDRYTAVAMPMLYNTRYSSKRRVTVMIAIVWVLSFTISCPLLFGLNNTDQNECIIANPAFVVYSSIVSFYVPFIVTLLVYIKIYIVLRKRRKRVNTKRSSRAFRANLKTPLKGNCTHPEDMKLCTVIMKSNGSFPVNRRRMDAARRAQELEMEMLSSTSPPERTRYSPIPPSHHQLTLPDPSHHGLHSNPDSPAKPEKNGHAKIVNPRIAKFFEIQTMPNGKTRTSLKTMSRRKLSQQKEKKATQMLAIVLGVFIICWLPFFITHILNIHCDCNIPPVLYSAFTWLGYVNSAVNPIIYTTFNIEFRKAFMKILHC
Sequence of D(1A) dopamine receptor (P18901 whole entry): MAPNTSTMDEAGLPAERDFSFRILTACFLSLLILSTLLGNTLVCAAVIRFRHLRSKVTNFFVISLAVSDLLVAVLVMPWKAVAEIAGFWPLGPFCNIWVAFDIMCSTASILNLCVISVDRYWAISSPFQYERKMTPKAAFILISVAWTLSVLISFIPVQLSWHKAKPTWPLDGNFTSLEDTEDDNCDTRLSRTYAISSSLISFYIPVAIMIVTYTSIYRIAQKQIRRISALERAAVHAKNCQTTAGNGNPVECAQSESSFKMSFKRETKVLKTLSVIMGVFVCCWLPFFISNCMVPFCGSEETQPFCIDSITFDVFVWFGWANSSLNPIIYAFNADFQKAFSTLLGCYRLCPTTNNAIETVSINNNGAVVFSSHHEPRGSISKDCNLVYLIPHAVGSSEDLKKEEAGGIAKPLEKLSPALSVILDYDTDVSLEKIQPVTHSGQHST

Ki [1] [µM]	Ki (D(1A) dopamine receptor) [µM]	Ki (D(2) dopamine receptor) [µM]	Ki [2] [µM]	Ki [3] [µM]	Structure (SMILES)
0.044	37.6	0.334	0.046	0.0153	O=C(c1cccc(CN2CCC(c3ccc(Cl)cc3)C2)c1)N1CCCCC1 (stereo not given)
0.024	88.1	0.783	0.32	0.0306	O=C(c1cccc(CN2CCC(c3ccccc3)C2)c1)N1CCCCC1 (stereo not given)
0.011	1.95	0.077	0.046	0.0115	O=C1c2ccccc2CN1CCCCN1CCC(c2ccccc2)C1 (stereo not given)
0.016	12.5	0.195	0.034	0.0027	O=C1c2ccccc2S(=O)(=O)N1CCCCN1CCC(c2ccccc2)C1 (stereo not given)
0.012	1.62	0.185	0.184	0.0304	O=C1c2ccccc2CN1CCCCN1CCC(c2ccc(Cl)cc2)C1 (stereo not given)
0.056	1.57	0.327	0.232	0.0026	O=C1c2ccccc2S(=O)(=O)N1CCCCN1CCC(c2ccc(Cl)cc2)C1 (stereo not given)
0.334	6.67	0.263	> 0.367	0.0042	O=C1c2ccccc2S(=O)(=O)N1CCCCN1CCC(c2ccc(F)cc2)C1 (stereo not given)
